# Assay results taken from patent US11534412B2, “Application of totarol and pharmaceutical composition containing totarol” (Emergopharm SP. Z O.O. SP.K., priority 2017, dated 2022).
# Test system: Lactobacillus gasseri - clinical strain
# Assay: Determination of the MIC value of totarol, broth dilution in 96-well plates with OD and quantitative culture
# Format: cell-based
# Conditions: for OD, average of 3 measurements / OD: 620 nm
# Protocol: Test of antibacterial activity of totarol using DMI (dimethylisosorbide) as a solvent.
# A suspension of 0.5 McF in physiological saline (suspension density 10^8 cfu/ml) was prepared from a 24-hour culture of a standard strain. 1 ml of the suspension was collected to 9 ml of a TSB broth ([…]). Suspensions with a dilution of 10^−6 were prepared in the described way. A suspension with a cell density of 10^5 cfu/ml was selected for further investigations. For each strain, 2 96-well plates were prepared: the first one was intended for the OD measurement, the second one—for quantitative culture on solid media. • A/ to wells B1-D1, B2-D2 and B-D 4-11, 100 µl of the broth were added; • B/ to wells B3-D3, 200 µl of the broth were added; • C/ to wells B1-D1, 1 µl of stock I was added; • D/ to wells B2-D2, 1 µl of stock II was added; • E/ to wells B3-D3, 2 µl of stock III were added. Using a multichannel pipette, 100 µl of the sample were collected from each of the B3-D3 wells and placed in wells B4-D4 (mixing by sucking the content in and letting it out for 5 times). The pipette tips were replaced and 100 µl of the content were collected from of the B4-D4 wells, and placed in wells B5-D5, mixing as previously. These operations were repeated through the wells B11-D11. The content in the B11-D11 wells was mixed, and 100 µl of the fluid were collected and discarded. This way, a series of dilutions of totarol samples in DMI in the range of 0.32% to 0.0004% was obtained. Then, 100 µl of a corresponding bacterial culture were added to the wells B, C, D 1-11. In consequence, a change in the final concentration range occurred, to 0.16%-0.0002%. Control Preparation: • Negative control: 100 µl of the broth+1 pl DMI were added to the Al well. • Positive control (I): 100 µl of the broth with the bacterial culture were added to the wells E1-G1. • Diluent positive control (II): 100 µl of the broth with the bacterial culture+1 pl DMI were added to the wells E2-G2. The OD value in the individual wells was read at the wavelength of 620 nm (read time 0). From the second 96-well plate, a culture was inoculated by a quantitative method from every dilution onto a well with a proper solid medium, and incubated for 24 h at 37° C. under aerobic or anaerobic conditions, depending on the strain. The plates were incubated under aerobic conditions or in an atmosphere of an elevated CO2 concentration (for the strains requiring it) in an incubator at 37° C. The OD was read after 8 h, 16 h, and 24 h, respectively. Before every OD measurement, the contents of the wells were mixed delicately. In parallel to the OD readout, cultures we inoculated from the second 96-well plate, from every dilution, into plates with a proper solid medium, and incubated for 24 h at 37° C., under aerobic or anaerobic conditions. For the analysis of the experimental results, an average value of the OD measurement obtained from three repetitions in the individual times (0, 8, 16, and 24 h) for the individual microbes (Gardnerella vaginalis, Streptococcus agalactiae, Enterococcus faecalis, Lactobacillus gasseri/plantarum) was taken. Additionally, the number of bacteria grown on solid media was taken into account. The results of the tests confirm the specific, concentration-dependent selectiveness, and the high antibacterial effectiveness of totarol against the pathogenic microorganisms: Gardnerella vaginalis, Streptococcus agalactiae, Enterococcus faecalis at low MIC values safe for bacteria of the Lactobacillus genus.
structure (smiles),measurement,setting,value
"CC(C)c1c(O)ccc2c1CC[C@H]1C(C)(C)CCC[C@]21C [Totarol, totarol]",MIC value,L. gasseri,0.04%
same,Inoculation cfu/ml,"totarol 0.0002%, 0 h",3.1 × 10^5 cfu/ml
same,"OD, average of 3 measurements","totarol 0.0002%, 0 h",0.299
same,Inoculation cfu/ml,"totarol 0.0002%, 8 h",2.1 × 10^5 cfu/ml
same,"OD, average of 3 measurements","totarol 0.0002%, 8 h",0.302
same,Inoculation cfu/ml,"totarol 0.0002%, 16 h",5.9 × 10^6 cfu/ml
same,"OD, average of 3 measurements","totarol 0.0002%, 16 h",0.897
same,Inoculation cfu/ml,"totarol 0.0002%, 24 h",2.9 × 10^7 cfu/ml
same,OD,"totarol 0.0002%, 24 h",1.492
same,Inoculation cfu/ml,"totarol 0.0004%, 0 h",5.1 × 10^5 cfu/ml
same,"OD, average of 3 measurements","totarol 0.0004%, 0 h",0.296
same,Inoculation cfu/ml,"totarol 0.0004%, 8 h",2.1 × 10^5 cfu/ml
same,"OD, average of 3 measurements","totarol 0.0004%, 8 h",0.306
same,Inoculation cfu/ml,"totarol 0.0004%, 16 h",3.9 × 10^6 cfu/ml
same,"OD, average of 3 measurements","totarol 0.0004%, 16 h",0.915
same,Inoculation cfu/ml,"totarol 0.0004%, 24 h",3.2 × 10^7 cfu/ml
same,OD,"totarol 0.0004%, 24 h",1.484
same,Inoculation cfu/ml,"totarol 0.0007%, 0 h",1.7 × 10^5 cfu/ml
same,"OD, average of 3 measurements","totarol 0.0007%, 0 h",0.289
same,Inoculation cfu/ml,"totarol 0.0007%, 8 h",1.9 × 10^5 cfu/ml
same,"OD, average of 3 measurements","totarol 0.0007%, 8 h",0.299
same,Inoculation cfu/ml,"totarol 0.0007%, 16 h",3.6 × 10^6 cfu/ml
same,"OD, average of 3 measurements","totarol 0.0007%, 16 h",0.879
same,Inoculation cfu/ml,"totarol 0.0007%, 24 h",3 × 10^7 cfu/ml
same,OD,"totarol 0.0007%, 24 h",1.458
same,Inoculation cfu/ml,"totarol 0.0013%, 0 h",3.8 × 10^5 cfu/ml
same,"OD, average of 3 measurements","totarol 0.0013%, 0 h",0.298
same,Inoculation cfu/ml,"totarol 0.0013%, 8 h",1.8 × 10^5 cfu/ml
same,"OD, average of 3 measurements","totarol 0.0013%, 8 h",0.301
same,Inoculation cfu/ml,"totarol 0.0013%, 16 h",4.1 × 10^6 cfu/ml
same,"OD, average of 3 measurements","totarol 0.0013%, 16 h",0.879
same,Inoculation cfu/ml,"totarol 0.0013%, 24 h",2.1 × 10^7 cfu/ml
same,OD,"totarol 0.0013%, 24 h",1.457
same,Inoculation cfu/ml,"totarol 0.0025%, 0 h",4.5 × 10^5 cfu/ml
same,"OD, average of 3 measurements","totarol 0.0025%, 0 h",0.285
same,Inoculation cfu/ml,"totarol 0.0025%, 8 h",1.5 × 10^5 cfu/ml
same,"OD, average of 3 measurements","totarol 0.0025%, 8 h",0.302
same,Inoculation cfu/ml,"totarol 0.0025%, 16 h",2.3 × 10^6 cfu/ml
same,"OD, average of 3 measurements","totarol 0.0025%, 16 h",0.880
same,Inoculation cfu/ml,"totarol 0.0025%, 24 h",2.3 × 10^7 cfu/ml
same,OD,"totarol 0.0025%, 24 h",1.459
same,Inoculation cfu/ml,"totarol 0.005%, 0 h",1.2 × 10^5 cfu/ml
same,"OD, average of 3 measurements","totarol 0.005%, 0 h",0.292
same,Inoculation cfu/ml,"totarol 0.005%, 8 h",2 × 10^5 cfu/ml
same,"OD, average of 3 measurements","totarol 0.005%, 8 h",0.300
same,Inoculation cfu/ml,"totarol 0.005%, 16 h",9.1 × 10^6 cfu/ml
same,"OD, average of 3 measurements","totarol 0.005%, 16 h",0.843
same,Inoculation cfu/ml,"totarol 0.005%, 24 h",2.1 × 10^7 cfu/ml
same,OD,"totarol 0.005%, 24 h",1.387
same,Inoculation cfu/ml,"totarol 0.01%, 0 h",3.9 × 10^5 cfu/ml
same,"OD, average of 3 measurements","totarol 0.01%, 0 h",0.301
same,Inoculation cfu/ml,"totarol 0.01%, 8 h",7 × 10^4 cfu/ml
same,"OD, average of 3 measurements","totarol 0.01%, 8 h",0.297
same,Inoculation cfu/ml,"totarol 0.01%, 16 h",5.3 × 10^6 cfu/ml
same,"OD, average of 3 measurements","totarol 0.01%, 16 h",0.799
same,Inoculation cfu/ml,"totarol 0.01%, 24 h",1.3 × 10^7 cfu/ml
same,OD,"totarol 0.01%, 24 h",1.301
same,Inoculation cfu/ml,"totarol 0.02%, 0 h",1.4 × 10^5 cfu/ml
same,"OD, average of 3 measurements","totarol 0.02%, 0 h",0.305
same,Inoculation cfu/ml,"totarol 0.02%, 8 h",1.4 × 10^5 cfu/ml
same,"OD, average of 3 measurements","totarol 0.02%, 8 h",0.299
same,Inoculation cfu/ml,"totarol 0.02%, 16 h",2.1 × 10^5 cfu/ml
same,"OD, average of 3 measurements","totarol 0.02%, 16 h",0.753
same,Inoculation cfu/ml,"totarol 0.02%, 24 h",1 × 10^5 cfu/ml
same,OD,"totarol 0.02%, 24 h",1.208
same,Inoculation cfu/ml,"totarol 0.04%, 0 h",4.6 × 10^5 cfu/ml
same,"OD, average of 3 measurements","totarol 0.04%, 0 h",0.352
same,Inoculation cfu/ml,"totarol 0.04%, 8 h",6 × 10^4 cfu/ml
same,"OD, average of 3 measurements","totarol 0.04%, 8 h",0.335
same,Inoculation cfu/ml,"totarol 0.04%, 16 h",4.5 × 10^3 cfu/ml
same,"OD, average of 3 measurements","totarol 0.04%, 16 h",0.342
same,Inoculation cfu/ml,"totarol 0.04%, 24 h",5 × 10^3 cfu/ml
same,OD,"totarol 0.04%, 24 h",0.349
same,Inoculation cfu/ml,"totarol 0.08%, 0 h",2.9 × 10^5 cfu/ml
same,"OD, average of 3 measurements","totarol 0.08%, 0 h",0.526
same,Inoculation cfu/ml,"totarol 0.08%, 8 h",1 × 10^4 cfu/ml
same,"OD, average of 3 measurements","totarol 0.08%, 8 h",0.409
same,Inoculation cfu/ml,"totarol 0.08%, 16 h",1.9 × 10^2 cfu/ml
same,"OD, average of 3 measurements","totarol 0.08%, 16 h",0.463
same,Inoculation cfu/ml,"totarol 0.08%, 24 h",1.2 × 10^2 cfu/ml
same,OD,"totarol 0.08%, 24 h",0.472
same,Inoculation cfu/ml,"totarol 0.16%, 0 h",6.5 × 10^5 cfu/ml
same,"OD, average of 3 measurements","totarol 0.16%, 0 h",0.427
same,Inoculation cfu/ml,"totarol 0.16%, 8 h",2.5 × 10^4 cfu/ml
same,"OD, average of 3 measurements","totarol 0.16%, 8 h",0.411
same,Inoculation cfu/ml,"totarol 0.16%, 16 h",3.1 × 10^1 cfu/ml
same,"OD, average of 3 measurements","totarol 0.16%, 16 h",0.409
same,Inoculation cfu/ml,"totarol 0.16%, 24 h",1 × 10^1 cfu/ml
same,OD,"totarol 0.16%, 24 h",0.406
